Measurements: article PMC9221546, “New Phenylglycinamide Derivatives with Hybrid Structure as Candidates for New Broad-Spectrum Anticonvulsants” (Cells, 2022)
Like-named read-outs stand apart in the source and are kept apart here.

Experiments:
[1] = tested on: MES-induced seizures in mice; assay: Maximal electroshock seizure (MES) test; format: in vivo; conditions: for protection in MES screening / responders at 100 mg/kg: 100 mg/kg i.p., 0.5 h; for protection in MES screening: four mice; for responders at 100 mg/kg / ED50: Mus musculus, ip; for responders at 100 mg/kg: read-out: MES screening: number of mice protected/number of mice tested (converted); for ED50: mice, pretreatment time 0.5 h, (95% confidence limits)
Experimental: (§1) Adult male Albino Swiss mice that weighed between 22 and 26 g were used in the in vivo studies. They were housed under standardized housing conditions in colony cages and had free access to food as well as tap water. The animals were left to adapt under laboratory conditions for 7 days. All procedures involving animals and their care were performed in accordance with the current European Community and Polish legislation on animal experimentation.
(§2) In the initial screening studies, four mice per group were randomly assigned to each experimental group (each mouse was used only once). To evaluate the ED50 or TD50 values, 3–4 groups that consisted of eight animals were injected with various doses of tested compounds. The protective indexes (PIs) for the compounds that were investigated and reference ASDs were calculated by dividing the TD50 value, as determined in the chimney test (or rotarod test), by the respective ED50 value, as determined in the MES, scPTZ, or 6 Hz (32 mA or 44 mA) tests (PI = TD50/ED50). The PIs is a measure of the potential therapeutic window of the tested agent.
(§3) All substances were suspended in Tween 80 (1% aqueous solution) and administered i.p. as a single injection at a dose of 10 mL/kg. On each day of experimentation, fresh solutions were prepared. The results are summarized in Table S1 (screening data) and Table 2 (ED50, TD50, and PI values, see Section 3 Results and Discussion).
(§4) The detailed in vivo procedures are described elsewhere: the maximal electroshock seizure test (MES), the subcutaneous pentylenetetrazole seizure test (scPTZ), the 6 Hz psychomotor seizure model (32 mA and 44 mA), and the chimney test.
(§5) The basic animal seizure models such as the MES, 6 Hz (32 mA or 44 mA), and the scPTZ are still a standard in the discovery and development of new ASDs. In vivo screening approaches enable the identification of compounds with unidentified and potentially novel mechanisms of action besides substances with well-established pharmacodynamics. Bearing in mind the aforementioned facts, compounds 45–66 were initially studied in the MES test and in the 6 Hz seizure model (32 mA) after intraperitoneal (i.p.) administration at a screening dose of 100 mg/kg in mice at a time point of 0.5 h (the screening group consisted of four mice, the results obtained are summarized in Table S1). It should be stressed that the MES test is an experimental model of human tonic–clonic epilepsy as well as partial convulsions with or without secondary generalization, the 6 Hz model (32 mA) corresponds to human focal epilepsy, whereas the scPTZ test relates to human generalized absence or myoclonic seizures.
(§6) We also established the median toxic doses (TD50) in the chimney test 0.5 h post i.p. administration of these compounds. Both the aforementioned parameters enabled the calculation of the protective indexes (PIs).

[2] = tested on: 6 Hz (32 mA) seizures in mice; assay: 6 Hz (32 mA) psychomotor seizure model; format: in vivo; conditions: for responders at 100 mg/kg / ED50: Mus musculus, ip; for ED50: mice, pretreatment time 0.5 h, (95% confidence limits)
Experimental: as §1, §2, §3, §4, §5, §6

[3] = tested on: scPTZ-induced seizures in mice; assay: Subcutaneous pentylenetetrazole (scPTZ) seizure test; format: in vivo; conditions: 100 mg/kg i.p., 0.5 h
Experimental: as §1, §2, §3, §4, §5

mice = assay: Capsaicin-induced hypothermia model / core body temperature; format: in vivo; conditions: i.p. 15 min before capsaicin 5 mg/kg; compound 60 50 mg/kg, BCTC 20 mg/kg
Experimental: Capsaicin was dissolved in 1% DMSO and administered at a dose of 5 mg/kg at a time point 0 min. Compound 60 and BCTC (positive control) were suspended in 1% Tween 80 and administered 15 min before capsaicin (at time point -15 min). All compounds were injected i.p. at a constant volume of 10 mL/kg. Control animals received the respective vehicles (1% DMSO or 1% Tween 80). Changes in the rectal temperature were measured using an electronic thermometer (ThermoWorks, Alpine, UT, USA) by inserting the rectal probe to a depth of ~2 cm into the rectum of the mouse. The measurements were taken at −15, 0, 15, 30, 60, 90, 120, and 180 min. The differences in the rectal temperature from baseline (time -15 min for groups receiving compound 60 and BCTC in combination with vehicle or time 0 min for groups receiving vehicle and capsaicin or compound 60 and BCTC in combination with capsaicin) to the respective time point ΔT (°C) were then calculated and analyzed. The results are shown in Figure 4 (see Section 3 Results and Discussion).
Figure 4 Effects of compound 60 and BCTC alone (A) or in combination with capsaicin (B) on the core body temperature in mice. Capsaicin (CPS) was injected at 0 min, as indicated by the arrow. Compound 60 or BCTC were administered 15 min prior to CPS injection. The temperature was measured at −15, 0, 15, 30, 60, 90, 120, and 180 min. Since body temperature returned to control values 60 min after CPS injection, subsequent measurements are not shown. Control animals received vehicles (1% DMSO or 1% Tween 80). All the compounds were administered i.p. Each experimental group consisted of seven to eight animals. The data are presented as the mean differences (ΔT) in rectal temperature from baseline (time −15 for A and time 0 for B) to the respective time point. The data were analyzed with one-way ANOVA followed by Tukey’s post hoc test. ** p < 0.01, *** p < 0.001, **** p < 0.0001 vs. the control group; ^#### p < 0.0001 vs. the CPS-treated group.

[4] = Chimney test (acute neurological deficit); conditions: mouse, in vivo, ip, mice
Experimental: as §2, §3, §4
We also established the median toxic doses (TD50) in the chimney test 0.5 h post i.p. administration of these compounds. […]

TRPV1 (VR1) (h) [5] = biological target: T1, TRPV1 (VR1) (h) (Homo sapiens, UniProt Q8NER1); assay: TRPV1 (VR1) (h) antagonist effect functional assay; format: cell-based; conditions: human recombinant CHO cells, read-out: % Inhibition of control agonist response, TRPV1 (antagonist effect)
T1 construct: host or cells: CHO
Experimental: (§7) Binding/functional studies were carried out commercially in Eurofins Laboratories (Poitiers, France) and Eurofins Panlabs Discovery Services Taiwan, Ltd. (New Taipei City, Taiwan) using testing procedures that were reported previously (for details see Table S2).
(§8) Table S2. Radioligand binding and functional assays. […]
Assays were performed commercially in Eurofins Laboratories (Poitiers, France) or Eurofins Panlabs Discovery Services Taiwan, Ltd. (New Taipei City, Taiwan).
Table S3. In vitro TRPV1 channel antagonist activity for compounds 45–66 (concentration of 100 µM). […]
Cmpd % Inhibition of control Cmpd % Inhibition of control agonist responsea agonist responsea
*Source: human recombinant CHO cells. a Results showing activity higher than 50% are considered to represent […]
variability of the sign al around the control level. Assays were performed commercially in Eurofins Laboratories

Na+ channel (site 2) = Na+ channel (site 2) radioligand binding; conditions: 10 µM; rat cerebral cortex
[6] = biological target: T2, Calcium Cav1.2 channels (dihydropyridine site) (Homo sapiens, UniProt Q13936); assay: Calcium Cav1.2 channel binding (dihydropyridine site, antagonist radioligand); conditions: 10 µM; human recombinant HEK-293 cell; read-out: % Inhibition of Control Specific Binding, Cav1.2 (dihydropyridine site)
T2 construct: host or cells: HEK-293

[7] = biological target: T3, Cav1.2 (h) calcium ion channel (Homo sapiens, UniProt Q13936); assay: Cav1.2 (h) calcium ion channel cell-based antagonist calcium flux assay; conditions: HEK293, human recombinant HEK-293 cell, read-out: % Inhibition of control agonist response, Cav1.2 calcium flux
T3 construct: Eurofins
Experimental: as §7, §8
TRPV1 (VR1) (h) (antagonist effect)
Cav1.2 (L-type) (h) calcium ion channel cell-based antagonist calcium flux assay
Assays were performed commercially in Eurofins Laboratories (Poitiers, France) or Eurofins Panlabs Discovery
Services Taiwan, Ltd. (New Taipei City, Taiwan). […]

recombinant human CYP2C9 = biological target: T4, recombinant human CYP2C9 (Homo sapiens, UniProt P11712); assay: CYP2C9 P450-Glo luminescent assay; format: in vitro ADME
T4 construct: purchased Promega (Madison, WI, USA)
Experimental: The risk of potential DDIs was predicted with use of luminescent CYP3A4, 2D6, and 2C9 P450-Glo assays (Figure 6). […] However, such an effect was also observed in our previous studies for other pyrrolidine-2,5-dione derivatives. […] However, the potential risk of DDI of 60 was still assessed as very low, and was compared to the selective CYP2C9 inhibitor sulfaphenazole (Figure 6C).
The data were analyzed with one-way ANOVA, followed by Bonferroni’s Multiple Comparison Post Test (Graph Pad Prism 8.0.1 software, San Diego, CA, USA)): * p < 0.05, ** p < 0.01, *** p < 0.001 **** p < 0.0001. The compounds were examined in triplicate.

hepatoma HepG2 cell line = assay: Hepatotoxicity, HepG2 viability (MTS); format: cell-based; conditions: 72 h treatment
Experimental: Figure 7 The effect of 53, 60, and 62, cytostatic drug doxorubicin (DX) and the mitochondrial toxin CCCP on the hepatoma HepG2 cell line viability after 72 h of incubation at 37 °C, 5% CO2. The data were analyzed with one-way ANOVA, followed by Bonferroni’s Comparison Test (Graph Pad Prism 8.0.1 software, San Diego, CA, USA)): ** p < 0.01, **** p < 0.0001 vs. negative control (DMSO 1% in growth media).

TRPV1 (VR1) (h) [8] = biological target: T1, TRPV1 (VR1) (h); assay: TRPV1 (VR1) (h) antagonist effect functional assay; format: cell-based; conditions: human recombinant CHO cells
[9] = Metabolic stability in human liver microsomes (HLMs)
[10] = tested on: MES-induced seizures in mice; conditions: i.p., pretreatment 0.5 h (LEV 1.0 h); cited from earlier work
[11] = tested on: 6 Hz (32 mA) seizures in mice; conditions: i.p., pretreatment 0.5 h (LEV 1.0 h); cited from earlier work
[12] = tested on: 6 Hz (44 mA) seizures in mice; conditions: i.p., pretreatment 0.5 h; cited from earlier work
[13] = 100 mg/kg i.p., 0.5 h, read-out: 6 Hz (32 mA) screening: number of mice protected/number of mice tested (converted)
[14] = 100 mg/kg i.p., 0.5 h, four mice, read-out: protection in 6 Hz (32 mA) screening

T1 sequence (Q8NER1 whole entry): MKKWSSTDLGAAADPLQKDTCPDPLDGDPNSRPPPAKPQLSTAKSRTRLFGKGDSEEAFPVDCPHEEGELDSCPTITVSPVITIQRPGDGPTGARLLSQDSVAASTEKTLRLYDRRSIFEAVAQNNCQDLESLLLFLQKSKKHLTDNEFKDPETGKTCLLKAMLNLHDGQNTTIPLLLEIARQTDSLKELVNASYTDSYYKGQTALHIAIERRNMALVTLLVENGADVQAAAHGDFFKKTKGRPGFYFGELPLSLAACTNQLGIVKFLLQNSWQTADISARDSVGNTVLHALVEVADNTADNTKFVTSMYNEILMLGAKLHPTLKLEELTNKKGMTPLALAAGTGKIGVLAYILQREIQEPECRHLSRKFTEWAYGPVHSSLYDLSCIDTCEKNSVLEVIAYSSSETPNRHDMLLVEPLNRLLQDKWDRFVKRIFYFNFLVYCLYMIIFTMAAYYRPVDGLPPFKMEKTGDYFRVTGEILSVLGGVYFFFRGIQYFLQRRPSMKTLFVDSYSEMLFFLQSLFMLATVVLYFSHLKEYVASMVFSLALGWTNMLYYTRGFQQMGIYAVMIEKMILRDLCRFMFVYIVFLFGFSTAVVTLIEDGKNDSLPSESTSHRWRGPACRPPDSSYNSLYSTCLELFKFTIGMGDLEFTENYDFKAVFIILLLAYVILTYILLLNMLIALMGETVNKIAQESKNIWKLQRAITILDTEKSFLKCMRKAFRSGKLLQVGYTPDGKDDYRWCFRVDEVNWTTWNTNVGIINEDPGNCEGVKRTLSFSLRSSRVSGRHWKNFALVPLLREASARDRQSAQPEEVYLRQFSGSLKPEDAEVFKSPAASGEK
T3 sequence (Q13936 whole entry): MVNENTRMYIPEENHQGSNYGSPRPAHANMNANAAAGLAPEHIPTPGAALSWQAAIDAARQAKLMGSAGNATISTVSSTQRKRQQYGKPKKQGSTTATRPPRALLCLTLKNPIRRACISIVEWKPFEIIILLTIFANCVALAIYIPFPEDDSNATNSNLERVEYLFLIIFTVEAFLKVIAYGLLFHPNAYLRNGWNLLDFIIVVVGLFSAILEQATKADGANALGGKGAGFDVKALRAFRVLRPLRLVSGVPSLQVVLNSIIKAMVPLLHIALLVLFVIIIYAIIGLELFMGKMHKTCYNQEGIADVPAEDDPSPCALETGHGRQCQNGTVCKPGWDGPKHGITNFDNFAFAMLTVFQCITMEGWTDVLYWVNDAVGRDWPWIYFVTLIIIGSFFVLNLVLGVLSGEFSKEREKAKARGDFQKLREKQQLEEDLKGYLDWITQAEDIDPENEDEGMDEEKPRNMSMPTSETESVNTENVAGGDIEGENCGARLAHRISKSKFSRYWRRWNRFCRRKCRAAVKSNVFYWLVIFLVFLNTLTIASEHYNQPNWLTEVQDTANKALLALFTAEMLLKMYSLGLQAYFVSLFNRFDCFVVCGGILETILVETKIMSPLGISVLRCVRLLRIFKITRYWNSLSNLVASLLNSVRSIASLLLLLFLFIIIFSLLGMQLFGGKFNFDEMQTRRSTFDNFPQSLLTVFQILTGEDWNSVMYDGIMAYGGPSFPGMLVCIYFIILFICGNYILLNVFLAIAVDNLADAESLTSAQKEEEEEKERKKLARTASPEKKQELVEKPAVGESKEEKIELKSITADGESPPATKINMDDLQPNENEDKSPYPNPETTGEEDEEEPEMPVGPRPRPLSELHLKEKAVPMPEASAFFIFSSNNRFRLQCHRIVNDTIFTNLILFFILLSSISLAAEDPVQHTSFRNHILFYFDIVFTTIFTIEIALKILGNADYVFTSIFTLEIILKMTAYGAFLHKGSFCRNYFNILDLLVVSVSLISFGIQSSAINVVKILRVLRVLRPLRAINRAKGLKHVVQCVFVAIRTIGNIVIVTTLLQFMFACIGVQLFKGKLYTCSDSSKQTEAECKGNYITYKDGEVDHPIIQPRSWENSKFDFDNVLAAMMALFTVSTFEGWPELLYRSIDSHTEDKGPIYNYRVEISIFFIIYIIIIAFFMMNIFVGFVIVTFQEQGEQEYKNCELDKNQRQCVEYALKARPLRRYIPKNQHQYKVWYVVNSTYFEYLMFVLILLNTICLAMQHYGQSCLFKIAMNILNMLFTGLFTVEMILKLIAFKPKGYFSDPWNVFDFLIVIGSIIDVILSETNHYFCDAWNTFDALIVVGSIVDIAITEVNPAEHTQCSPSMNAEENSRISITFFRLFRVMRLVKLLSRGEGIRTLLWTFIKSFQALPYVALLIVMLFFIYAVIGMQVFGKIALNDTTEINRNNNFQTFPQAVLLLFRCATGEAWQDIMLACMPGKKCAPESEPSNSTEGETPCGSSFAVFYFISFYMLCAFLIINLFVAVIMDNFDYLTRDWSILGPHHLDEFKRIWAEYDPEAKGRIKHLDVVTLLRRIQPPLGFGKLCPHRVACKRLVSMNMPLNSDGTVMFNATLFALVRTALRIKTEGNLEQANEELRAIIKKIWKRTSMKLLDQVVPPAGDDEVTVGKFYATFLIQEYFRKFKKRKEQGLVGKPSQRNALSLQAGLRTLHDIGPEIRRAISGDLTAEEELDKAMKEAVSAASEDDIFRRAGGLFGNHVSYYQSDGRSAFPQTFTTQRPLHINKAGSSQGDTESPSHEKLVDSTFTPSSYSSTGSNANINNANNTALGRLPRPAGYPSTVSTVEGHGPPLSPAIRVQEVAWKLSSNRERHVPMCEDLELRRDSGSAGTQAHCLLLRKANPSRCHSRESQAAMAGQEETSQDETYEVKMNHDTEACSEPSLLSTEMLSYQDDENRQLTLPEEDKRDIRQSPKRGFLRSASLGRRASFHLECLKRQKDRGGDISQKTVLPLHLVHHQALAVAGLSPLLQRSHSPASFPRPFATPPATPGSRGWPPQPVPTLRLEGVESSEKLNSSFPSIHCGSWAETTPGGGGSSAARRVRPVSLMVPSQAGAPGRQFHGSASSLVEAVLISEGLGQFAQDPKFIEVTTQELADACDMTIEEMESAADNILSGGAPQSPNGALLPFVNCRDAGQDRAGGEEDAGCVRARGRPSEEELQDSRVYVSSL
T3 sequence (Q08289 whole entry partner): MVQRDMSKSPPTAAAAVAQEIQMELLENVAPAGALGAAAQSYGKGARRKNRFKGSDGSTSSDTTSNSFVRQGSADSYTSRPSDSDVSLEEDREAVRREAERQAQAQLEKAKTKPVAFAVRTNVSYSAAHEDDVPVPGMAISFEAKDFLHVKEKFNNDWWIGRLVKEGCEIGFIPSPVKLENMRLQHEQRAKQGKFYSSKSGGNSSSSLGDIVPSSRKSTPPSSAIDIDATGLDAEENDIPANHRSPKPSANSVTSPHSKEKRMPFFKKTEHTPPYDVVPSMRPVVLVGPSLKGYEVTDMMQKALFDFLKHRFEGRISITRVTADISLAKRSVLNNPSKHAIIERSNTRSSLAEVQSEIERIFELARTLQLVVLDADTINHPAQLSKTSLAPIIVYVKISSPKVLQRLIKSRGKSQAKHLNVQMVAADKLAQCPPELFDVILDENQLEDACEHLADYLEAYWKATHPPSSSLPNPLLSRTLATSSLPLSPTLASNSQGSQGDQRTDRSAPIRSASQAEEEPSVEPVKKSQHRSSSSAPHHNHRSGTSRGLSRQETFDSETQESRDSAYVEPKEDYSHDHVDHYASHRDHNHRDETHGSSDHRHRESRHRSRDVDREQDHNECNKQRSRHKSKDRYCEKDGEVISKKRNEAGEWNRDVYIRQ
T3 sequence (P54289 25-956 partner limits assumed): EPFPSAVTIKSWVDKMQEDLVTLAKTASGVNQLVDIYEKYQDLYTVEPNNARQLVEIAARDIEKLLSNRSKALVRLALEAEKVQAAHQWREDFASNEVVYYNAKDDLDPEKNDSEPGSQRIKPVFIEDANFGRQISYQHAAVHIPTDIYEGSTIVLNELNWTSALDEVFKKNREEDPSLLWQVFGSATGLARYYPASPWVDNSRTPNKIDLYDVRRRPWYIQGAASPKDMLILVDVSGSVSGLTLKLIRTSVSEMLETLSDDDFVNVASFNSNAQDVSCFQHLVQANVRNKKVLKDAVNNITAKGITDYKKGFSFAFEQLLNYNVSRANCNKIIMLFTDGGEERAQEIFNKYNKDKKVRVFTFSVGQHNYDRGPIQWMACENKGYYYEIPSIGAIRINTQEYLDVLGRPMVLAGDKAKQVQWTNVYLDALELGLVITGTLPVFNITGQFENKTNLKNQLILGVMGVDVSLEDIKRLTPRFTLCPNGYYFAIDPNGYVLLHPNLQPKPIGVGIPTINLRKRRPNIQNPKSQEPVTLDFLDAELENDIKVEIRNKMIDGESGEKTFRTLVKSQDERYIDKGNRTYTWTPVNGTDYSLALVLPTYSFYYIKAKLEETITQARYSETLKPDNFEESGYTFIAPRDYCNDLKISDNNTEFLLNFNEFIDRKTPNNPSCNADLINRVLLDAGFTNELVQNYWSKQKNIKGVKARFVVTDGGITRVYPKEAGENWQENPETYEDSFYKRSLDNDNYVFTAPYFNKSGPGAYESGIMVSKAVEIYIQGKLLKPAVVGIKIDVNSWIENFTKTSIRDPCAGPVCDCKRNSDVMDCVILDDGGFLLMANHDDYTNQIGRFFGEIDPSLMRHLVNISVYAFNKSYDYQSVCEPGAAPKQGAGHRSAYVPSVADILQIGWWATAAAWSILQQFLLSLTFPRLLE
T3 sequence (P54289 957-1103 partner limits assumed): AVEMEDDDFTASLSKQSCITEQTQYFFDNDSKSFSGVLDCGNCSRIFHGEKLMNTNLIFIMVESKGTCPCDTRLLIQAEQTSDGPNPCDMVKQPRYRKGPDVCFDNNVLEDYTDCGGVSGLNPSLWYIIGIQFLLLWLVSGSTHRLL

| Structure (SMILES) | protection in MES screening [1] | responders at 100 mg/kg [1] [%] | responders at 100 mg/kg [2, 13] [%] | scPTZ screening: number of mice protected/number of mice tested [3] | ED50 [1] [mg/kg] | responders at 100 mg/kg [2, 14] [%] | ED50 [2] [mg/kg] | inhibition at 100 µM (TRPV1 (VR1) (h) [5]) [%] | other results |
| --- | --- | --- | --- | --- | --- | --- | --- | --- | --- |
| CC(C)(C)c1ccc(NC(=O)N2CCN(c3ncccc3Cl)CC2)cc1 [BCTC, N-(4-Tertiarybutylphenyl)-4-(3-Chloropyridin-2-Yl)Tetrahydropyrazine-1(2H)-Carbox-Amide, reference compound] | ineffective | 0 | 0 | 0/4 | – | – | – | – | protection in 6 Hz (32 mA) screening ([2]; 100 mg/kg i.p., 0.5 h, four mice): ineffective; protection in scPTZ screening ([3]; four mice): ineffective; effect on capsaicin-induced hypothermia (co-administration) (mice): prevented the capsaicin-evoked decrease in body temperature |
| CC(=O)NC(C(=O)N1CCN(c2cccc(Cl)c2)CC1)c1ccccc1 (centres unmarked) [Compound 47, N-(2-(4-(3-chlorophenyl)piperazin-1-yl)-2-oxo-1-phenylethyl)acetamide] | – | 0 | 75 | – | > 150 | 75 | 88.4 | 125 | TD50 at 0.5 h [4]: > 500 mg/kg; melting point: 145.5 to 146.7 °C |
| CC(=O)NC(C(=O)N1CCN(c2cccc(SC(F)(F)F)c2)CC1)c1ccccc1 (centres unmarked) [Compound 62, N-(2-oxo-1-phenyl-2-(4-(3-((trifluoromethyl)thio)phenyl)piperazin-1-yl)ethyl)acet--amide] | 75% | 75 | 100 | 0/4 | 76.1 | 100 | 33.2 | 135 | % Inhibition of Control Specific Binding, Na+ channel (site 2) (Na+ channel (site 2)): 57.0 (10) %; inhibition at 10 µM [6]: 12%; inhibition at 10 µM [7]: 65%; influence on CYP2C9 activity (recombinant human CYP2C9): weak inhibition effect; effect on HepG2 cell viability (hepatotoxicity) (hepatoma HepG2 cell line): highest hepatotoxic risk; IC50 (TRPV1 (VR1) (h) [8]): 10 µM; Kb (TRPV1 (VR1) (h) [8]): 1.4 µM; remaining at 2 h ([9]; human, human liver microsomes): 84%; Metabolic Pathway ([9]; metabolites after 120 min incubation with HLMs): hydroxylation |
| O=C(C(c1ccccc1)N1C(=O)CCC1=O)N1CCN(c2cccc(C(F)(F)F)c2)CC1 (centres unmarked) [KA-104] | – | – | – | – | – | – | – | – | ED50 MES [10]: 23.7 (18.4−31.2) mg/kg; ED50 6 Hz (32 mA) [11]: 22.4 (17.4−28.8) mg/kg; ED50 6 Hz (44 mA) [12]: 73.2 (57.4–93.4) mg/kg |
